According to patent US20240199552A1, “AMIDE COMPOUND AND USE THEREOF” (Metisa Biotechnology Co., Ltd, priority 2021, published 2024):
Like-named read-outs stand apart in the source and are kept apart here.

How the values were obtained:
Format in all cases: in vivo
[1] = tested on: cat flea; test: Insecticidal experiment on cat flea, thin film in culture dish; settings: Ctenocephalides felis, 72 h, read-out: mortality rate, cat flea
Method: 4 mg of the compound to be determined was dissolved in 40 mL of acetone to obtain an acetone solution with a concentration of 100 mg/L. 400 μL of the drug solution was applied on the bottom and sides of a culture dish with an inner diameter of 5.3 cm, then after acetone was evaporated, a thin film of the compound of the present invention was made on the inner wall of the culture dish. The inner wall of the culture dish used was 40 cm^2, and the treatment dosage was 1 μg/cm^2. 10 adult cat fleas (mixed male and female) were put into the dish, and it was stored in a constant-temperature room at 25° C. after being covered. The number of dead insects after 72 h was checked and the mortality rate was calculated. The experiment was repeated for 3 times.

[2] = tested on: Spodoptera exigua; test: Insecticidal activity against Spodoptera exigua, leaf disc dipping feeding method; settings: foliar, 72 h, 0.625 mg/L, 3 days after the administration, read-out: mortality rate against Spodoptera exigua
Method: After the compound to be determined was dissolved in a mixed solvent of acetone/methanol (1:1), it was diluted with water containing 0.1% (wt) Tween-80 to a desired concentration. […]
Determination method: the activity was tested by using a leaf disc dipping feeding method. Leaf discs were dipped in a drug solution for 10 s, and placed in a culture dish after being air-dried, there were 4 discs in each dish, and a filter paper was placed in the culture dish for moisture retention. 10 test insects of Spodoptera exigua were introduced to each dish, with 3 replicates.
They were placed in a light incubator for culture at a temperature of 25° C. and an illumination of 14hL:10hD. On the 1st, 2nd, and 3rd day after the administration, the number of dead Spodoptera exigua was investigated and the mortality rate was calculated.

[3] = tested on: Diamondback moth; test: Insecticidal activity against Diamondback moth, Airbrush spray on cabbage leaf discs; settings: Plutella xylostella, foliar, 72 h; for mortality at 1.25 µg/mL: 1.25 mg/L, 3rd-instar larvae, read-out: mortality rate against Diamondback moth; for mortality at 10 µg/mL: 10 mg/L, read-out: Mortality rate (%, 3 days after the administration) 10 mg/L; for mortality at 0.156 µg/mL: read-out: Mortality rate (%, 3 days after the administration) 0.156 mg/L; for mortality at 0.313 µg/mL: read-out: Mortality rate (%, 3 days after the administration) 0.313 mg/L
Method: (§1) After the compound to be determined was dissolved in a mixed solvent of acetone/methanol (1:1), it was diluted with water containing 0.1% (wt) Tween-80 to a desired concentration.
(§2) Mythimna separata, Diamondback moth, Chilo suppressalis, Spodoptera exigua, Myzus persicae, and Franklinella occidentalis were used as targets, and the activity was tested by an Airbrush spray method.
Determination method: cabbage leaves were formed into leaf discs having a diameter of 2 cm using a puncher, and the front and back of each leaf disc were sprayed under an Airbrush spray treatment pressure of 10 psi (approximate to 0.7 kg/cm^2) and with a spray volume of 0.5 mL. After drying in the shade, 10 3rd-instar larvae were inoculated for each treatment, and each treatment was repeated for 3 times. After the treatment, the leaf discs were placed into an observation chamber at 25° C. and with a relative humidity of 60% to 70%, and the number of living larvae was investigated 3 days after the administration of the compounds, and the mortality rates were calculated.

[4] = tested on: Myzus persicae; test: Insecticidal activity against Myzus persicae, Airbrush spray on cabbage leaves; settings: 50 mg/L, after 48 h, read-out: mortality rate against Myzus persicae
Method: as §1, §2
Determination method: a culture dish with a diameter of 6 cm was taken, the bottom of the dish was covered by a layer of filter paper, and an appropriate amount of tap water was added to moisturize the paper. Cabbage leaves with an appropriate size (the diameter was about 3 cm) and 15-30 aphids grown were cut from cabbage plants used to culture Myzus persicae, winged aphids and aphids on the front of the leave were removed, and it was placed in the culture dish while the back of the leave was upward. The pressure of airbrush spray treatment was 10 psi (about 0.7 kg/cm^2), the liquid spray volume was 0.5 mL, and there were 3 replicates for each treatment. After the treatment, the leave was put into an observation room for culture at 25° C. and a relative humidity of 60-70%. After 48 h, the number of live insects was investigated and the mortality rate was calculated.

[5] = tested on: Chilo suppressalis; test: Insecticidal activity against Chilo suppressalis, sprayed rice stems; settings: 72 h, 0.625 mg/L, 3 days after the administration, 3rd-instar larvae, read-out: mortality rate against Chilo suppressalis
Method: as §1, §2
Determination method: 1) Preparation of rice seedlings: rice was cultured in a plastic small cup with a diameter of 4.5 cm and a height of 4 cm in a constant temperature room (the temperature was 26-28° C., the relative humidity was about 60-80%, and the illumination was 16hL:8hD), when the rice grown to a 4-5 leaf stage, robust and uniformly grown rice seedlings were selected for pharmaceutical treatment, and 3 replicates were set for each treatment. 2) Preparation of test insects: 3rd-instar larvae of Chilo suppressalis were continuously reared indoors. 3) Rice stems were sprayed and insects were introduced. A spray method was used to treat whole rice seedlings with uniform spray, and each treatment was 15 mL. Blank controls were treated firstly, and then the above operation was repeated in an order of experimental concentrations from low to high. After the spray treatment of the rice seedlings, they were placed in the shade to air-dry drug liquid, about 5 cm of the stem from a basal part of the stem was cut and fed to the test insects. A glass culture dish with a diameter of 90 mm was prepared, filter paper was placed on the bottom of the dish, then water was added to moisturize. About 5 rice stems were placed in each dish, 10 larvae were introduced, and the culture dish was closed with non-woven fabric and placed in the constant-temperature room for culture. 3 days after the administration, the number of residual live insects was investigated.

[6] = tested on: Mythimna separata; test: Insecticidal activity against Mythimna separata, Airbrush spray on maize leaf pieces; settings: 72 h, 0.05 mg/L, 3 days after the administration, 3rd-instar larvae, read-out: mortality rate against Mythimna separata
Method: as §1, §2
Determination method: maize leaves were cut into 2 cm leaf pieces, and the front and back of each leaf piece were sprayed under an Airbrush spray treatment pressure of 10 psi (approximate to 0.7 kg/cm^2) and with a spray volume of 0.5 mL. After drying in the shade, 10 3rd-instar larvae were inoculated for each treatment, and each treatment was repeated for 3 times. After the treatment, the leaf pieces were put into an observation chamber at 25° C. and with a relative humidity of 60% to 70%, and the number of living larvae was investigated 3 days after the administration of the compounds, and the mortality rates were calculated.

[7] = tested on: Franklinella occidentalis; test: Insecticidal activity against Franklinella occidentalis nymphs, sprayed bean leaves
Method: as §1, §2
Determination method: fresh bean leaves cultivated in a greenhouse were selected, a hand-held Airbrush sprayer was used to spray uniformly, each treatment was 1 mL, and after being air-dried naturally, the leaves were placed in a finger-shaped tube. Neat and healthy Franklinella occidentalis nymphs were introduced, there were 15 nymphs for each treatment, 3 replicates were set for the experiment, and water treatment was set as a blank control. After the treatment, the leaves were put into an indoor culture room for culture at 24° C., a relative humidity of 60-70%, and natural light. After 72 h, the number of live insects was investigated and the mortality rate was calculated.

[8] = 3 days after the administration
[9] = 3 days after the administration, Diamondback moth
[10] = 0.156 mg/L, 3 days after the administration, Diamondback moth
[11] = 0.313 mg/L, 3 days after the administration, Diamondback moth

SMILES | mortality at 1 µg/cm2 [1] | mortality at 0.625 µg/mL [2] | mortality at 1.25 µg/mL [3, 8] | mortality at 10 µg/mL [3, 9] | mortality at 50 µg/mL [4] | mortality at 0.625 µg/mL [5] | mortality at 0.05 µg/mL [6] | Mortality rate (%, 3 days after the administration) 10 mg/L [7] | Mortality rate (%, 3 days after the administration) 100 mg/L [7] | also measured
C=CCN(C(=O)c1ccc(C(F)(F)F)nc1)c1cccc(C(=O)Nc2c(Br)cc(C(F)(C(F)(F)F)C(F)(F)F)cc2C(F)(F)F)c1F [Compound 27] | > 90% | > 90% | > 90% | 100% | > 90% | > 90% | > 90% |  |  | 
C#CCN(C(=O)c1ccc(C#N)cc1)c1cccc(C(=O)Nc2c(Br)cc(C(F)(C(F)(F)F)C(F)(F)F)cc2C(F)(F)F)c1F [Compound 39] | > 90% | > 90% | > 90% | 100% | > 90% | > 90% | > 90% |  |  | 
C#CCN(C(=O)c1ccccc1)c1cccc(C(=O)Nc2c(C)cc(C(F)(C(F)(F)F)C(F)(F)F)cc2C)c1 [KC2, reference compound] |  |  |  | 0% |  |  |  |  |  | 
C#CCN(C(=O)c1ccccc1)c1cccc(C(=O)Nc2c(I)cc(C(F)(C(F)(F)F)C(F)(F)F)cc2C(F)(F)F)c1F [Compound 32] | > 90% | > 90% | > 90% | 100% | > 90% | > 90% | > 90% |  |  | 
C=CCN(C(=O)c1ccc(C#N)cc1)c1cccc(C(=O)Nc2c(I)cc(C(F)(C(F)(F)F)C(F)(F)F)cc2C(F)(F)F)c1F [Compound 12] | > 90% | > 90% | > 90% | 100% | > 90% | > 90% | > 90% |  |  | 
C#CCN(C(=O)c1ccc(C#N)cc1)c1cccc(C(=O)Nc2c(I)cc(C(F)(C(F)(F)F)C(F)(F)F)cc2C(F)(F)F)c1F [Compound 40] | > 90% | > 90% | > 90% | 100% | > 90% | > 90% | > 90% |  |  | 
CN(C(=O)c1ccc(F)nc1)c1cccc(C(=O)Nc2c(Br)cc(C(F)(C(F)(F)F)C(F)(F)F)cc2C(F)(F)F)c1F [KC7, reference compound] |  |  |  |  |  |  |  | 53.33% | 80.00% | mortality at 0.156 µg/mL [3, 10]: 56.7%; mortality at 0.313 µg/mL [3, 11]: 100%
C#CCN(C(=O)c1ccccc1)c1cccc(C(=O)Nc2c(C)cc(C(F)(C(F)(F)F)C(F)(F)F)cc2C)c1F [KC10, reference compound] |  |  |  | 100% |  |  |  |  |  | 
CN(C(=O)c1ccc(F)cc1)c1cccc(C(=O)Nc2c(Br)cc(C(F)(C(F)(F)F)C(F)(F)F)cc2C(F)(F)F)c1F [KC4, reference compound] |  |  |  |  |  |  |  | 40.00% | 62.22% | mortality at 0.156 µg/mL [3, 10]: 60%; mortality at 0.313 µg/mL [3, 11]: 100%
C=CCN(C(=O)c1ccccc1)c1cccc(C(=O)Nc2c(C)cc(C(F)(C(F)(F)F)C(F)(F)F)cc2C)c1F [KC9, reference compound] |  |  |  | 100% |  |  |  |  |  | 
CN(C(=O)c1ccc(F)nc1)c1cccc(C(=O)Nc2c(I)cc(C(F)(C(F)(F)F)C(F)(F)F)cc2C(F)(F)F)c1F [KC8, reference compound] |  |  |  |  |  |  |  | 53.33% | 82.22% | mortality at 0.156 µg/mL [3, 10]: 53.3%; mortality at 0.313 µg/mL [3, 11]: 86.7%
O=C(Nc1cccc(C(=O)Nc2c(I)cc(C(F)(C(F)(F)F)C(F)(F)F)cc2C(F)(F)F)c1F)c1ccc(F)nc1 [KC6, reference compound] |  |  |  |  |  |  |  | 57.78% | 77.78% | mortality at 0.156 µg/mL [3]: 46.7%; mortality at 0.313 µg/mL [3]: 90%
CN(C(=O)c1ccccc1)c1cccc(C(=O)Nc2c(Br)cc(C(F)(C(F)(F)F)C(F)(F)F)cc2C(F)(F)F)c1F [KC3, broflanilide, reference compound] |  |  |  |  |  |  |  | 31.11% | 57.78% | mortality at 0.156 µg/mL [3]: 50%; mortality at 0.313 µg/mL [3]: 93.3%
C=CCN(C(=O)c1ccccc1)c1cccc(C(=O)Nc2c(C)cc(C(F)(C(F)(F)F)C(F)(F)F)cc2C)c1 [KC1, reference compound] |  |  |  | 0% |  |  |  |  |  | 
CN(C(=O)c1ccc(F)cc1)c1cccc(C(=O)Nc2c(I)cc(C(F)(C(F)(F)F)C(F)(F)F)cc2C(F)(F)F)c1F [KC5, reference compound] |  |  |  |  |  |  |  | 28.89% | 51.11% | mortality at 0.156 µg/mL [3, 10]: 73.3%; mortality at 0.313 µg/mL [3, 11]: 100%
